Laboratory results from publication PMC9503024, “Structure and Biological Properties of Ribosome-Inactivating Proteins and Lectins from Elder (Sambucus nigra L.) Leaves” (Toxins, 2022).

Key:
Conditions in all cases: human erythrocytes; room temperature, 1 h; serial dilutions
SNAld = SNAld (Sambucus nigra, UniProt Q8GTA6)
nigrin l = nigrin l (Sambucus nigra, UniProt Q8GT32)
SNAlm = SNAlm (Sambucus nigra, UniProt Q8GTA5)
SNAlm, sequence (Q8GTA5 57-316 limits assumed): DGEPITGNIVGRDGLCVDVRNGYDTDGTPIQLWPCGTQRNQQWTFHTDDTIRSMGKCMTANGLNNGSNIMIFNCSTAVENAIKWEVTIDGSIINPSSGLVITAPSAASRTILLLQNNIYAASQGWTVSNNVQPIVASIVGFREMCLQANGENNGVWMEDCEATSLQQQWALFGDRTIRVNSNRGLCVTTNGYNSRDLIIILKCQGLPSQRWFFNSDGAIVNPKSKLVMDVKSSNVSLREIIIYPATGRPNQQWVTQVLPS

SNAld, sequence (Q8GTA6 entry or part of it): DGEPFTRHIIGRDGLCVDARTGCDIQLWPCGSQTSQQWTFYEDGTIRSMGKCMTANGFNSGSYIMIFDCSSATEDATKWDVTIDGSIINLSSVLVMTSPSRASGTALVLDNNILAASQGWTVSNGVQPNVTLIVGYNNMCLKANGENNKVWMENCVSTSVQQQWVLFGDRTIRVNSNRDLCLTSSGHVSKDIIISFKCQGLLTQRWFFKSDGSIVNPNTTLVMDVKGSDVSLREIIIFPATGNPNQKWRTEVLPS
nigrin l, sequence (Q8GT32 26-282 limits assumed): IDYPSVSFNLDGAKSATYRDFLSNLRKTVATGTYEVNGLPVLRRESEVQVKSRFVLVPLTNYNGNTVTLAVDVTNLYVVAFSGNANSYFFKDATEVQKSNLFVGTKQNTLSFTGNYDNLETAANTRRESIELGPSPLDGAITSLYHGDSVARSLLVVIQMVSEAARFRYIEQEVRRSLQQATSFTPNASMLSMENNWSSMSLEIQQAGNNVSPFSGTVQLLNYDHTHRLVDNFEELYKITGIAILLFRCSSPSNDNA
nigrin l, sequence (Q8GT32 298-563 limits assumed): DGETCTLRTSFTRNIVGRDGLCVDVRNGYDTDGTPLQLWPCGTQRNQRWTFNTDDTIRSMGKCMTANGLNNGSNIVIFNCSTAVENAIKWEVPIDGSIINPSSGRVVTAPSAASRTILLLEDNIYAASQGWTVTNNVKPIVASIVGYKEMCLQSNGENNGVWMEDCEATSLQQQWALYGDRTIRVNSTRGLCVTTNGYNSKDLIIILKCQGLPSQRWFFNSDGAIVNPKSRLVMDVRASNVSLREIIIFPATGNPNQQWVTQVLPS

Compound | SNAld (SNAld) | Nigrin l (nigrin l) | SNAlm (SNAlm)
OC[C@H]1OC(O)[C@H](O)[C@@H](O)[C@H]1O (stereo partly drawn) [D-galactose] | 100 mM | 50 mM | 6.25 mM
OC[C@H]1O[C@@H](O[C@H]2[C@H](O)[C@@H](O)C(O)O[C@@H]2CO)[C@H](O)[C@@H](O)[C@H]1O (stereo partly drawn) [Lactose, β-D-galactopyranosyl-(1→4)-D-glucose] | 25 mM | 12.5 mM | 1.56 mM
